Earlier results as cited in publication PMC8374649, “IBI362 (LY3305677), a weekly-dose GLP-1 and glucagon receptor dual agonist, in Chinese adults with overweight or obesity: A randomised, placebo-controlled, multiple ascending dose phase 1b study” (EClinicalMedicine, 2021).

Tests used:
[1] = system: Japanese adults with type 2 diabetes; conditions: once-daily, 48-day phase 2a study; cited from earlier work
Excerpt: Despite the weight loss effect of glucagon, its inherited stimulation of gluconeogenesis and glycogenolysis requires optimal balancing of GLP-1 and glucagon receptor activities for dual agonists. […] IBI362 has b ...

[2] = system: patients with type 2 diabetes; conditions: 12-week administration; cited from earlier work
Excerpt: A remarkable and unexpected finding of this study was the statistically significant reduction in serum uric acid levels in participants receiving IBI362. BMI is strongly positively correlated with serum uric acid levels, and weight loss is a commonly recommended treatment for gout, a disease resulting from chronic elevation of serum uric acid, [29], [30]. Although GLP-1 receptor agonists promote weight loss, direct evidence regarding the relationship between GLP-1 receptor agonists and blood uric acid level is limited.

| Substance | Weight loss and glycaemic control [1] | Plasma uric acid levels compared with placebo [2] |
| --- | --- | --- |
| Cotadutide | optimal weight loss and glycaemic control |  |
| liraglutide (HAEGTFTSDVSSYLEGQAAKEFIAWLVRGRG; chains of the INN, looked up) [GLP-1 receptor agonist] |  | did not reduce plasma uric acid levels |
